These results are taken from patent US12190997B2, “Genetically altered LysM receptors with altered agonist specificity and affinity” (Aarhus Universitet, priority 2018, dated 2025).

One test relates to HvRLK10 ectodomain. The test is described as follows: BLI binding of HvRLK10 ectodomain to ligands. Also on record: species or system Hordeum vulgare. Conditions: FIGS. 16A, 16C-16D. The procedure:
(§1) Expression and purification of ectodomain: The HvRLK10 ectodomain (residues 25-231; SEQ ID NO:66) was codon-optimized for insect cell expression (Genscript, Piscataway, USA) and cloned into the pOET4 baculovirus transfer vector (Oxford Expression Technologies). The native HvRLK10 signal peptide was replaced with the gp64 signal peptide (SEQ ID NO:59) to facilitate secretion and a hexa-histidine (6×HIS; SEQ ID NO:61) tag was added to the C-terminus (HvRLK10-ecto (25-231), N-term gp64, C-term 6His=SEQ ID NO:65). The HvRLK4 ectodomain (residues 27-228; SEQ ID NO:68) was codon-optimized for insect cell expression (Genscript, Piscataway, USA) and cloned into the pOET4 baculovirus transfer vector (Oxford Expression Technologies). […]
(§2) Biolayer interferometry (BLI): Binding of HvRLK10 ectodomain or HvRLK4 ectodomain to ligands was measured on an Octet RED 96 system (Pall ForteBio). […] Equilibrium dissociation constants derived from the steady-state were determined by applying a non-linear regression (one site, specific binding) to the response at equilibrium plotted against the protein concentration. Kinetic parameters were determined by non-linear regression (association followed by dissociation) on the subtracted data.

Test [1] deals with ectodomain where LysM2 from LjLYS11 was replaced with LysM2 from LjNFR5. The experiment in a line: BLI binding of LjLYS11 ectodomain with LysM2 replaced by LysM2 from LjNFR5. Also on record: species or system Lotus japonicus. The following applies: FIG. 15D. The procedure: Biolayer interferometry (BLI): Binding of LjLYS11 ectodomain and domain-swapped versions of LjLYS11 ectodomain to ligands was measured on an Octet RED 96 system (Pall ForteBio). The ligands used were CO5 chitin oligomer (corresponding to the backbone of S. meliloti LCO-V), M. loti LCO, and S. meliloti LCO. S. meliloti LCO consists of a tetrameric/pentameric N-acetylglucosamine backbone that is O-sulfated on the reducing terminal residue, O-acetylated on the non-reducing terminal residue, and mono-N-acylated by unsaturated C16 acyl groups. M. loti LCO is a pentameric N-acetylglucosamine with a cis-vaccenic acid and a carbamoyl group at the non-reducing terminal residue together with a 2,4-O-acetylfucose at the reducing terminal residue. Biotinylated ligand conjugates were immobilized on streptavidin biosensors (kinetic quality, Pall ForteBio) at a concentration of 125-250 nM for 5 minutes. Data analysis was performed in GraphPad Prism 6 software (GraphPad Software, Inc.). Equilibrium dissociation constants derived from the steady-state were determined by applying a non-linear regression (one site, specific binding) to the response at equilibrium plotted against the protein concentration. Kinetic parameters were determined by non-linear regression (association followed by dissociation) on the subtracted data. […]

Another test has as its target LjLYS11 ectodomain (Lotus japonicus, UniProt D3KTZ8). The test is described as follows: BLI binding of LjLYS11 ectodomain to ligands. The following applies: FIG. 15C. How it is done:
LjLYS11 ectodomain production and purification: The LjLYS11 ectodomain (residues 26-234; SEQ ID NO:60) was codon-optimized for insect cell expression (Genscript, Piscataway, USA) and cloned into the pOET4 baculovirus transfer vector (Oxford Expression Technologies). The native LjLYS11 signal peptide was replaced with the gp64 signal peptide (SEQ ID NO:59) to facilitate secretion and a hexa-histidine (6×His; SEQ ID NO:61) tag was added to the C-terminus (LjLYS11-ecto (26-234), N-term gp64, C-term 6His=SEQ ID NO:56). Recombinant baculoviruses were produced in Sf9 cells (Spodoptera frugiperda) using the FlashBac Gold kit (Oxford Expression technologies) according to the manufacturer's instructions with Lipofectin (ThermoFisher Scientific) as a transfection reagent. Protein expression was performed as follows. […]
Biolayer interferometry (BLI): Binding of LjLYS11 ectodomain and domain-swapped versions of LjLYS11 ectodomain to ligands was measured on an Octet RED 96 system (Pall ForteBio). […] Equilibrium dissociation constants derived from the steady-state were determined by applying a non-linear regression (one site, specific binding) to the response at equilibrium plotted against the protein concentration. Kinetic parameters were determined by non-linear regression (association followed by dissociation) on the subtracted data. […]
Background: In BLI a coated tip is dipped into the sample, and binding shifts an interference pattern.

The next test deals with HvRLK4 ectodomain. The experiment in a line: BLI binding of HvRLK4 ectodomain to ligands. Also noted: species or system Hordeum vulgare. Conditions: FIGS. 16E, 16G-16H. The procedure: as §1, §2

Sequence of LjLYS11 ectodomain (D3KTZ8 entry or part of it): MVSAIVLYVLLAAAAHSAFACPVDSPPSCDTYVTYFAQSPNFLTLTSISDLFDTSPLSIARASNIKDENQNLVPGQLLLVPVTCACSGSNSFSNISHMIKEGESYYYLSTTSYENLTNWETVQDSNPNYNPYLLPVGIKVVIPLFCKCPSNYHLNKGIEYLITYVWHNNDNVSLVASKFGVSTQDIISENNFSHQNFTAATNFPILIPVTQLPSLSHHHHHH

As to `CC(=O)N[C@H]1[C@H](O[C@H]2[C@H](O)[C@@H](NC(C)=O)[C@H](O[C@H]3[C@H](O)[C@@H](NC(C)=O)C(O)O[C@@H]3CO)O[C@@H]2CO)O[C@H](CO)[C@@H](O[C@@H]2O[C@H](CO)[C@@H](O[C@@H]3O[C@H](CO)[C@@H](O)[C@H](O)[C@H]3NC(C)=O)[C@H](O)[C@H]2NC(C)=O)[C@@H]1O` (stereo partly shown) [CO5], the binding result in the test on HvRLK10 ectodomain is “did not bind”; on LjLYS11 ectodomain it was “able to bind”; in the test on HvRLK4 ectodomain, “did not bind”. Besides, the “binding compared with unmodified LjLYS11 ectodomain” value in test [1] is “loss of ability to bind”.
